Test results taken from patent US9718828B2 (MERCK SHARP & DOHME CORP., priority 2011, dated 2017).
Structures can show the parent of a compound that is named as a salt.

molecular target: Btk enzyme (His-Btk) (Homo sapiens (Human), UniProt Q06187); experiment: Btk enzyme activity, IMAP fluorescence polarization assay (Assay Method A); conditions: not given
Sequence (Q06187 whole entry): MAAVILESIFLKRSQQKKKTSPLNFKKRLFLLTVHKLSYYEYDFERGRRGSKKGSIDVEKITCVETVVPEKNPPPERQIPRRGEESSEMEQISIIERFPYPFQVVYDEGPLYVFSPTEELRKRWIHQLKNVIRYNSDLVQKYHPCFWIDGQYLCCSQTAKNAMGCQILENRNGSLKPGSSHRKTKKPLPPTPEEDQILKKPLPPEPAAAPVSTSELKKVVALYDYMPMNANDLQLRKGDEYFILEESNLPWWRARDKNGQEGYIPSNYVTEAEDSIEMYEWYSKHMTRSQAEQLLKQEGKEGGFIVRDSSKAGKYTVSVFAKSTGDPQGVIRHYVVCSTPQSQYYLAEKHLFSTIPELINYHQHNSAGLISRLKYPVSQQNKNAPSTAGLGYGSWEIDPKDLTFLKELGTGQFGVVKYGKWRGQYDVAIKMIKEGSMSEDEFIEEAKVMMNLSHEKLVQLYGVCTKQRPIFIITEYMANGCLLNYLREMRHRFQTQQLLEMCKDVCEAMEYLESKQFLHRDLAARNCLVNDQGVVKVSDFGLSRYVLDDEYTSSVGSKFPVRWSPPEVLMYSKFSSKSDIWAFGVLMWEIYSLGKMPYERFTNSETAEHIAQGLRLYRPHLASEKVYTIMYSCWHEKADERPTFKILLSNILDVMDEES

| EC50 | Compound |
| --- | --- |
| 10 to 100 nM | CC1(C(=O)N2CCC[C@@H](c3nc(-c4ccc(C(=O)Nc5cc(C(F)(F)F)ccn5)cc4)c4c(N)ncc(-c5ccccc5)n34)C2)COC1 [Example 321, (R)-4-(8-amino-3-(1-(3-methyloxetane-3-carbonyl)piperidin-3-yl)-5-phenylimidazo[1,5-a]pyrazin-1-yl)-N-(4-(trifluoromethyl)pyridin-2-yl)benzamide] |
| 10 to 100 nM | Nc1nccn2c([C@@H]3CCC[C@H](NC(=O)OCc4ccccc4)C3)nc(-c3ccc(C(=O)Nc4cc(C(F)(F)F)ccn4)cc3)c12 (relative stereo) [Example 154, benzyl (cis)-3-(8-amino-1-(4-(4-(trifluoromethyl)pyridin-2-ylcarbamoyl)phenyl)imidazo [1,5-a]pyrazin-3-yl)cyclohexylcarbamate] |
| 10 to 100 nM | CC(C)(C)NC(=O)C1CCCN(c2nc(-c3ccc(C(=O)Nc4ccccn4)cc3)c3c(N)nccn23)C1 (stereo not shown) [Example 228, 1-(8-amino-1-(4-(pyridin-2-ylcarbamoyl)phenyl)imidazo[1,5-a]pyrazin-3-yl)-N-tert-butylpiperidine-3-carboxamide, TFA salt] |
| < 10 nM | CCNC(=O)N1CCC[C@@H](c2nc(-c3ccc(C(=O)Nc4cc(C5CC5)ccn4)cc3)c3c(N)nccn23)C1 [Example 63, (R)-3-(8-amino-1-(4-(4-cyclopropylpyridin-2-ylcarbamoyl)phenyl)imidazo [1,5-a]pyrazin-3-yl)-N-ethylpiperidine-1-carboxamide] |
| < 10 nM | CO[C@H]1CC[C@@H](c2nc(-c3ccc(C(=O)Nc4cc(C#N)ccn4)cc3)c3c(N)nccn32)CC1 [Example 41, 4-(8-amino-3-((cis)-4-methoxycyclohexyl)imidazo [1,5-a]pyrazin-1-yl)-N-(4-cyanopyridin-2-yl)benzamide] |
| 100 to 1000 nM | CS(=O)(=O)N1CCC[C@@H](c2nc(-c3ccc(C(=O)Nc4ccccn4)cc3)c3c(N)nccn23)C1 [Example 49, (R)-4-(8-amino-3-(1-(methylsulfonyl)piperidin-3-yl)imidazo[1,5-a]pyrazin-1-yl)-N-(pyridin-2-yl)benzamide] |
| < 10 nM | CC1(C(=O)N2CCC[C@@H](c3nc(-c4ccc(C(=O)Nc5cc(C(F)(F)F)ccn5)cc4)c4c(N)nccn34)C2)CCC1 [Example 70, (R)-4-(8-amino-3-(1-(1-methylcyclobutanecarbonyl)piperidin-3-yl)imidazo[1,5-a]pyrazin-1-yl)-N-(4-(trifluoromethyl)pyridin-2-yl)benzamide] |
| 10 to 100 nM | C[C@@H]1CC[C@@H](c2nc(-c3ccc(C(=O)Nc4cc(C(F)(F)F)ccn4)cc3)c3c(N)nccn23)CN1C(=O)C1CCCO1 (relative stereo) [Example 185, 4-(8-amino-3-((trans)-6-methyl-1-(tetrahydrofuran-2-carbonyl)piperidin-3-yl)imidazo[1,5-a]pyrazin-1-yl)-N-(4-(trifluoromethyl)pyridin-2-yl)benzamide, TFA salt] |
| 10 to 100 nM | Nc1nccn2c([C@@H]3CCCN(CCC(F)(F)F)C3)nc(-c3ccc(C(=O)Nc4ccccn4)cc3)c12 [Example 136, (R)-4-(8-amino-3-(1-(3,3,3-trifluoropropyl)piperidin-3-yl)imidazo[1,5-a]pyrazin-1-yl)-N-(pyridin-2-yl)benzamide TFA salt] |
| 100 to 1000 nM | Cc1cc(C(=O)Nc2ccccn2)ccc1-c1nc([C@H]2CC[C@H](O)CC2)n2ccnc(N)c12 [Example 16] |
| < 10 nM | CCOC(=O)c1cnc(N)c2c(-c3ccc(C(=O)Nc4cc(C(F)(F)F)ccn4)cc3)nc([C@@H]3CCCN(C(=O)C4(C)COC4)C3)n12 [Example 299, (R)-ethyl 8-amino-3-(1-(3-methyloxetane-3-carbonyl)piperidin-3-yl)-1-(4-(4-(trifluoromethyl)pyridine-2-ylcarbamoyl)phenyl)imidazo[1,5-a]pyrazine-5-carboxylate] |
| 10 to 100 nM | CC1(C(=O)N2C[C@@H](O)C[C@@H](c3nc(-c4ccc(C(=O)Nc5cc(C(F)(F)F)ccn5)cc4)c4c(N)nccn34)C2)COC1 (relative stereo) [Example 179, 4-(8-amino-3-((cis)-5-hydroxy-1-(3-methyloxetane-3-carbonyl)piperidin-3-yl)imidazo[1,5-a]pyrazin-1-yl)-N-(4-(trifluoromethyl)pyridin-2-yl)benzamide] |

same assay, conditions: read-out: EC50 Btk activity values - Assay Method A; IMAP-FP, 60 min pre-incubation, 5 μM ATP; class 100-1000 is given as ≧100 nM-<1 μM

| EC50 | Compound |
| --- | --- |
| < 10 nM | Nc1nccn2c([C@@H]3CCCN(C(=O)CN4CCOC4=O)C3)nc(-c3ccc(C(=O)Nc4cc(C5CC5)ccn4)cc3)c12 [Example 110, (R)-4-(8-amino-3-(1-(2-(2-oxooxazolidin-3-yl)acetyl)piperidin-3-yl)imidazo[1,5-a]pyrazin-1-yl)-N-(4-cyclopropylpyridin-2-yl)benzamide] |
| < 10 nM | COCCC(=O)N[C@H]1CCC[C@@H](c2nc(-c3ccc(C(=O)Nc4cc(C(F)(F)F)ccn4)cc3)c3c(N)nccn23)C1 (relative stereo) [Example 158, 4-(8-amino-3-((cis)-3-(3-methoxypropanamido)cyclohexyl)imidazo [1,5-a]pyrazin-1-yl)-N-(4-(trifluoromethyl)pyridin-2-yl)benzamide] |
| < 10 nM | CC(C)C(=O)N[C@@H]1CCC[C@@H](c2nc(-c3ccc(C(=O)Nc4cc(C(F)(F)F)ccn4)cc3)c3c(N)nccn23)C1 (relative stereo) [Example 167, 4-(8-amino-3-((trans)-3-isobutyramidocyclohexyl)imidazo [1,5-a]pyrazin-1-yl)-N-(4-(trifluoromethyl)pyridin-2-yl)benzamide] |
| < 10 nM | Nc1nccn2c([C@@H]3CCCN(CC(O)CO)C3)nc(-c3ccc(C(=O)Nc4cc(C(F)(F)F)ccn4)cc3)c12 (stereo partly drawn) [Example 139, 4-(8-amino-3-((3R)-1-(2,3-dihydroxypropyl)piperidin-3-yl)imidazo[1,5-a]pyrazin-1-yl)-N-(4-(trifluoromethyl)pyridin-2-yl)benzamide, TFA salt] |
| < 10 nM | Nc1nccn2c([C@@H]3CCC[C@@H](N)C3)nc(-c3ccc(C(=O)Nc4cc(C(F)(F)F)ccn4)cc3)c12 (relative stereo) [Example 165, 4-(8-amino-3-((trans)-3-aminocyclohexyl)imidazo[1,5-a]pyrazin-1-yl)-N-(4-(trifluoromethyl)pyridin-2-yl)benzamide] |
| < 10 nM | CCOC(=O)N1CCC[C@@H](c2nc(-c3ccc(C(=O)Nc4ccccn4)cc3)c3c(N)nccn23)C1 [Example 47, (R)-ethyl 3-(8-amino-1-(4-(pyridin-2-ylcarbamoyl)phenyl)imidazo[1,5-a]pyrazin-3-yl)piperidine-1-carboxylate] |
| < 10 nM | Nc1nccn2c(N3CCCC(C(=O)N4CCOCC4)C3)nc(-c3ccc(C(=O)Nc4cc(C(F)(F)F)ccn4)cc3)c12 (stereo not shown) [Example 234, 4-(8-amino-3-(3-(morpholine-4-carbonyl)piperidin-1-yl)imidazo[1,5-a]pyrazin-1-yl)-N-(4-(trifluoromethyl)pyridin-2-yl)benzamide, TFA salt] |
| < 10 nM | Nc1ncnc2c1c(-c1ccc(C(=O)Nc3cc(C(F)(F)F)ccn3)cc1)nn2[C@@H]1CCCN(C(=O)C2CCC2)C1 [Example 277, (R)-4-(4-amino-1-(1-(cyclobutanecarbonyl)piperidin-3-yl)-1H-pyrazolo[3,4-d]pyrimidin-3-yl)-N-(4-(trifluoromethyl)pyridin-2-yl)benzamide] |
| < 10 nM | Cc1cnc(N)c2c(-c3ccc(C(=O)Nc4cc(C(F)(F)F)ccn4)cc3)nc([C@@H]3CCCN(C(=O)C4(C)COC4)C3)n12 [Example 306, (R)-4-(8-amino-5-methyl-3-(1-(3-methyloxetane-3-carbonyl)piperidin-3-yl)imidazo[1,5-a]pyrazin-1-yl)-N-(4-(trifluoromethyl)pyridin-2-yl)benzamide] |
| < 10 nM | C[C@H]1CC[C@@H](c2nc(-c3ccc(C(=O)Nc4ccccn4)cc3)c3c(N)nccn23)CN1C(=O)C1CC1 (relative stereo) [Example 192, 4-(8-amino-3-((cis)-1-(cyclopropanecarbonyl)-6-methylpiperidin-3-yl)imidazo[1,5-a]pyrazin-1-yl)-N-(pyridin-2-yl)benzamide, TFA salt] |
| < 10 nM | CCNC(=O)N[C@H]1CCC[C@@H](c2nc(-c3ccc(C(=O)Nc4cc(C(F)(F)F)ccn4)cc3)c3c(N)nccn23)C1 (relative stereo) [Example 155, 4-(8-amino-3-((cis)-3-(3-ethylureido)cyclohexyl)imidazo [1,5-a]pyrazin-1-yl)-N-(4-(trifluoromethyl)pyridin-2-yl)benzamide] |
| < 10 nM | CC1(C)CC(c2nc(-c3ccc(C(=O)Nc4cc(C(F)(F)F)ccn4)cc3)c3c(N)nccn23)CCO1 (stereo not shown) [Example 34, 4-(8-amino-3-(2,2-dimethyltetrahydro-2H-pyran-4-yl)imidazo[1,5-a]pyrazin-1-yl)-N-(4-(trifluoromethyl)pyridin-2-yl)benzamide] |
| < 10 nM | Nc1nccn2c1c(-c1ccc(C(=O)Nc3cc(-c4ccccc4)ccn3)cc1)nc2[C@H]1CC[C@H](O)CC1 [Example 20, 4-(8-amino-3-((trans)-4-hydroxycyclohexyl)imidazo[1,5-a]pyrazin-1-yl)-N-(4-phenylpyridin-2-yl)benzamide] |
| < 10 nM | CCCc1ccnc(NC(=O)c2ccc(-c3nc([C@H]4CC[C@H](O)CC4)n4ccnc(N)c34)c(C)c2)c1 [Example 10, 4-(8-amino-3-((trans)-4-hydroxycyclohexyl)imidazo[1,5-a]pyrazin)-3-methyl-N-(4-propylpyridin-2-yl)benzamide] |
| < 10 nM | CC(C)C(=O)N1CCC[C@@H](c2nc(-c3ccc(C(=O)Nc4cc(C(F)(F)F)ccn4)cc3)c3c(N)nccn23)C1 [Example 104, (R)-4-(8-amino-3-(1-isobutyrylpiperidin-3-yl)imidazo[1,5-a]pyrazin-1-yl)-N-(4-(trifluoromethyl)pyridin-2-yl)benzamide] |
| < 10 nM | CCNC(=O)N1C[C@H](c2nc(-c3ccc(C(=O)Nc4ccccn4)cc3)c3c(N)nccn23)CC[C@@H]1C (relative stereo) [Example 193, (cis)-5-(8-amino-1-(4-(pyridin-2-ylcarbamoyl)phenyl)imidazo [1,5-a]pyrazin-3-yl)-N-ethyl-2-methylpiperidine-1-carboxamide, TFA salt] |
